ChEMBL document CHEMBL1201862, “PubChem BioAssay data set” (2004)
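Growth conditions: 96-well plates. Treatment: test compound, 48 hours, 5 concentrations. Analysis: linear interpolation between bracketing concentrations; unreached endpoints set to highest concentration. GI50 is the concentration that inhibits growth by half.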 Calls of active or inactive are those of the source. Rule as the data show it: active = GI50 up to about 1.1 µM and inactive = higher.

Key:
Assay in all cases: inhibition of tumour cell growth, NCI panel, 48 h
PC-3 = tested on: PC-3
SF-539 = tested on: SF-539
SR = tested on: SR
KM12 = tested on: KM12
HL-60 = tested on: HL-60
MOLT-4 = tested on: MOLT-4
HCC 2998 = tested on: HCC 2998
ACHN = tested on: ACHN
SK-MEL-2 = tested on: SK-MEL-2
U-251 = tested on: U-251
T47D = tested on: T47D
SN12C = tested on: SN12C
OVCAR-8 = tested on: OVCAR-8
DU-145 = tested on: DU-145
NCI-H23 = tested on: NCI-H23
NCI/ADR-RES = tested on: NCI/ADR-RES
IGROV-1 = tested on: IGROV-1
A549 = tested on: A549
MDA-N = tested on: MDA-N
HT-29 = tested on: HT-29

Measured: GI50

COC(=O)c1ccccc1C1CN=NC12Cc1cc(C)ccc1C2=O (stereo not given)
inactive: PC-3 94.4 µM | SF-539 > 100 µM | SR > 100 µM | KM12 92.9 µM | HL-60 92.7 µM | MOLT-4 > 100 µM | HCC 2998 > 100 µM | ACHN > 100 µM | SK-MEL-2 > 100 µM | U-251 > 100 µM | T47D > 100 µM | SN12C > 100 µM | OVCAR-8 > 100 µM | DU-145 > 100 µM | NCI-H23 > 100 µM | NCI/ADR-RES 49.9 µM | IGROV-1 > 100 µM | A549 > 100 µM | MDA-N 72.9 µM | HT-29 > 100 µM

C=CCNC1=C2C[C@@H](C)C[C@@H](OC)C(OC(=O)CCCN(C)C)[C@H](C)/C=C(\C)[C@@H](OC(N)=O)[C@H](OC)/C=C\C=C(/C)C(=O)NC(=CC1=O)C2=O (stereo not given in full)
inactive: PC-3 4.98 µM | SF-539 6.73 µM | SR 2.59 µM | KM12 4.07 µM | HL-60 5.51 µM | MOLT-4 5.75 µM | HCC 2998 4.6 µM | ACHN 7.48 µM | SK-MEL-2 12.6 µM | U-251 10.6 µM | T47D 11.5 µM | SN12C 2.42 µM | OVCAR-8 4.1 µM | DU-145 5.02 µM | NCI-H23 6.84 µM | NCI/ADR-RES 21.8 µM | IGROV-1 8.95 µM | A549 3.85 µM | MDA-N 7.26 µM | HT-29 2.7 µM
